Experiments:
[1] = test system: NADH oxidase isolated from Brevibacterium sp.; details: inhibitor 1 mM, 3 minutes at room temperature; NADH 10 μM; (NH4)2SO4 500 mM; Tris-HCl pH 8.8; not stated whether % inhibition or % relative activity
Description: The enzyme solution was added to 100 mM Tris-HCl (pH 8.8). Further, an inhibitor was added thereto to a final concentration of 1 mM, followed by incubation at room temperature for 3 minutes. Then, NADH and (NH4)2SO4 were added thereto so as to result in concentrations of 10 μM and 500 mM, respectively, followed by determination of the absorbance at 340 nm. Accordingly, the reaction rate was determined.

[2] = test system: NADH oxidase isolated from Brevibacterium sp.; assay: Substrates and activity levels in the presence of cofactors; format: biochemical, Brevibacterium sp. KU1309
Description: (§1) Enzyme activity was evaluated by measuring the absorbance at 340 nm, which decreases as a result of oxidization of NADH to NAD^+, with the use of an absorptiometer. A reaction was induced by adding an enzyme solution to a mixture of 0.1 mM NADH, 100 mM Tris-HCL (pH 8.8), and 500 mM ammonium sulfate. Herein, “1 unit” is defined as the amount of an enzyme that allows oxidation of 1μ mole of NADH per minute.

[3] = test system: NADH oxidase isolated from Brevibacterium sp.; assay: Effects of salts on enzyme activity; format: biochemical, Brevibacterium sp. KU1309
Description: Reaction was carried out with the addition of different salts, followed by determination of absorbance at 340 nm. Then, the reaction rate was determined. […] Then, the effects of ammonium salt concentration upon enzyme activity were examined in the manner described below. The reaction was carried out in the presence of ammonium sulfate at a concentration of 0 M to 4.35 M. Thereafter, the relative value of the reaction rate was calculated.

[4] = test system: NADH oxidase isolated from Brevibacterium sp.; assay: H2O2 formation confirmation and quantification (o-dianisidine/peroxidase, Abs460); format: biochemical, Brevibacterium sp. KU1309; details: NADH 75, 100 and 150 μM
Description: NOX is classified into the H2O by-product type and the H2O2 by-product type. With the use of the assay method shown in FIG. 8A, H2O2 formation confirmation and H2O2 quantification were carried out. First, the reaction was carried out with the use of hydrogen peroxide, o-dianisidine, and peroxidase at known concentrations. The standard curve of [H2O2] vs Abs460 was created. The symbol “♦” denotes each obtained plotted point on the curve in FIG. 8B. […] The reaction was completed after the elapse of a sufficient reaction time. The completion of the reaction was confirmed with the use of an absorptiometer. The obtained reaction solution (50 μl) was added to a 100 mM phosphate buffer (pH 7.0) containing o-dianisidine and peroxidase, followed by absorbance determination. The symbol “□” denotes each obtained plotted point on the curve in FIG. 8B. […] It is understood that the values were identical to the relevant [H2O2] concentrations.

[5] = test system: NADH oxidase isolated from Brevibacterium sp.; assay: Kinetic analysis of NADH oxidation (Lineweaver-Burk plot, absorbance at 340 nm); format: biochemical, Brevibacterium sp. KU1309; details: for Km: NOX 0.28 ug/ml
Description: as §1
For kinetic analysis, the reaction rate was determined at an NADH concentration of 10 μM to 100 μM. A Lineweaver-Burk plot was created based on the obtained values. The reaction was carried out as described below. A reaction solution (NOX: 0.28 ug/ml; NADH: 10 μM to 100 μM; (NH4)2SO4: 500 mM; and Tris-HCl: 100 mM (pH 8.8)) was introduced into an absorptiometer cell, followed by determination of the absorbance at 340 nm. Accordingly, the reaction rate was determined.

[6] = substrate NADH, cofactor added at 1 mM
[7] = as substrate, no cofactor added, NADH without cofactor = 100
[8] = NADH 10 μM to 100 μM, (NH4)2SO4 500 mM, Tris-HCl 100 mM (pH 8.8)

[Ag+] [Ag^+]
activity inhibited (FIG. 6 relative activity values) [1]: 37%

[Cu+2] [Cu^2+]
activity inhibited (FIG. 6 relative activity values) [1]: 42%

Cc1cc2nc3c(=O)[nH]c(=O)nc-3n(C[C@H](O)[C@H](O)[C@H](O)COP(=O)(O)OP(=O)(O)OC[C@H]3O[C@@H](n4cnc5c(N)ncnc54)[C@H](O)[C@@H]3O)c2cc1C [FAD]
activation caused by FAD or FMN [2]: not observed
Specific activity (%) [2, 6]: 101%

Cc1cc2nc3c(=O)[nH]c(=O)nc-3n(C[C@H](O)[C@H](O)[C@H](O)COP(=O)(O)O)c2cc1C [FMN]
activation caused by FAD or FMN [2]: not observed
Specific activity (%) [2, 6]: 104%

NC(=O)C1=CN([C@@H]2O[C@H](COP(=O)(O)OP(=O)(O)OC[C@H]3O[C@@H](n4cnc5c(N)ncnc54)[C@H](OP(=O)(O)O)[C@@H]3O)[C@@H](O)[C@H]2O)C=CC1 [NADPH]
degree of NADPH-oxidizing activity [2]: low
Specific activity (%) [2, 7]: 2%

[Zn+2] [Zn^2+]
activity inhibited (FIG. 6 relative activity values) [1]: 39%

N.N.O=S(=O)(O)O [ammonium salt, ammonium sulfate]
effect of addition of salt on enzyme activity [3]: increases
ammonium salt concentration ([NH4+]) at maximum activity ([3]; ammonium sulfate 0 M to 4.35 M): 3.0 M

reduced nicotinamide adenine dinucleotide [NADH]
hydrogen peroxide formed on oxidization of 1 mol of NADH [4]: 1 mol
Specific activity (%) [2, 7]: 100%
Kcat ([5]; Calculated with a molecular weight of 101.68 kDa): 15.01 s⁻¹
Vmax [5, 8]: 8.86 Unit/mq
Km [5, 8]: 22 µM

B1: enzyme of the present invention: hydrogen peroxide-forming NADH oxidase from Brevibacterium sp. KU1309, homodimer, amino acid sequence of SEQ ID NO: 18 (protein, listed as Brevibacterium sp.)
chain: VSDELTYDLVVLGGGTGGYAAALRAAELDMKVALIERDKVGGTCLHRGCVPTKALLHAAEVAETAKNSETFGIEAELQGIDIAKVLEYKDGVITRNYKGLQGLVKARGIDTYFGTGKLVGKDTVEVTGEDGNHTVKGTNVLLSTGSTSKTIGLEVTDRVITSTEALQLDKVPSSAIVLGGGVIGVEFASVWNSFGAEVTIVEGLKHLVANEDETISKNLERAFKKRKIKFKLGVMFKGVEETADGVKVTLEDGSTLEAEYLLVAVGRGPVTEGFGFEEQGIPMDRGFVLASERLHTGVGNIYACGDIVPGLQLAHRAFGQGIFIAEEIAGLNPAPVVESGIPRVTYCEPEIFSVGLSSAQAEEKYGKDQVESLEYNLGGNGKSVILNTTGLIKVIREKDGPVVGVHGIGARLSEQAGEAQLIVNWEAFPEEVAQLIHAHPTQNEALGEAHLALAGKPLHFHS
modifications: homodimer
hydrogen peroxide formed on oxidization of 1 mol of NADH [4]: 1 mol
Km [5, 8]: 22 µM

— US8546113B2, “Hydrogen peroxide-forming NADH oxidase and DNA encoding the same” (Keio University, priority 2008, dated 2013)
